Measured values taken from patent US20130011333A1, “Methods and Compositions for Nanoparticle-Mediated Cancer Cell-Targeted Delivery” (Board of Regents, The University of Texas System, priority 2010, published 2013).

Key:
MDA-MB-231 cells [1] = test: Colony formation assay; type: cell-based, human; conditions: MDA-MB-231 cells expressing high level of mutant p53, transfected vector
MCF-10A cells [2] = test: Colony formation assay; type: cell-based, human; conditions: expression level that markedly inhibits MDA-MB-231 growth
Method: FIG. 6. MCF-10A cells are less sensitive to a moderate level of p53/p73OD expression. MCF-10A cells with MDA-MB-231 cells as controls were transfected with the indicated vectors (0.5 μg) and subjected to colony formation assay as in FIG. 5. Western blot was performed in parallel to determine the level of p53/p73OD expression.
As a result, the response of normal cells to a moderate level of p53/p73OD expression is likely to differ from that of cancer cells. This was tested by comparing MDA-MB-231 cells and MCF-10A cells (a non-transformed human breast epithelial cell line), using a similar colony formation assay.

MDA-MB-231 cells [3] = test: Western analysis of p53 pathway; type: cell-based, human
Method: After selection with puromycin, the cells were subjected to colony formation assay. The data are means±SE from three separate experiments (A). Western analysis was performed with cells that were harvested at 48 h pos-selection and probed using the indicated antibodies (B).
(§1) A. Cells as in FIG. 6 were subject to Western analysis using the indicated antibodies. P53/p73OD expressing MDA-MB-231 or MCF-10A cells were either mock or irradiated with 4Gy. The cells were either harvested at 6 h post-IR for Western analysis (B) or at 24 h for FACS analysis (C). The results are mean±SE from three independent experiments.
The present invention utilizes a p53/p73 chimera to circumvent this OD-mediated inactivation by mutant p53. A series of p53/p73 chimeric proteins were generated by swapping corresponding domains of p53 and p73 [28]. […] A crystal structure study has confirmed this observation. […] This is of particular significance considering the dominant-negative and gain-of-function activities of mutant p53 that are primarily responsible for the oncogenic function.
(§2) To understand potential mechanisms underlying the differential sensitivity of cancer cells and non-transformed cells to p53/p73OD expression, p53 activity was examined further. […] The result is in line with the notion that cancer cells, but not normal cells, harbor strong intrinsic p53-activating signals. The low activity of p53/p73OD in MCF-10A cells led to the question of whether the chimera could be activated by exogenous stimuli such as radiation.

MCF-10A cells [4] = test: Western analysis of p53 pathway; type: cell-based, human; conditions: 4Gy, 6 h post-IR
Method: as §1, §2

MCF-10A cells [5] = test: FACS (flow cytometry) analysis after irradiation; type: cell-based, human; conditions: MCF-10A cells expressing p53/p73OD, 4Gy, 24 h
Method: as §1, §2

MDA-MB-231 cells [6] = test: FACS (flow cytometry) analysis after irradiation; type: cell-based, human; conditions: MDA-MB-231 cells expressing p53/p73OD, 4Gy, 24 h
Method: as §1, §2

[7] = system: MDA-MB-231 cells stably expressing Pg13-GFP; test: Pg13-GFP reporter of p53 activation; type: cell-based, human; conditions: delivered with GLU-PEG-PEI, 0.2 μg DNA/60-mm dish, 24 h
Method: The cells were fixed 24 h later using 2% formalin and stained with DAPI dye. The top panels show the GFP expression. The bottom panels show cell nuclei detected by DAPI staining.
To facilitate the detection of p53 activation in situ, a Pg13-GFP system was developed in which 13 repeats of a canonical p53 responsive element were cloned to drive the expression of GFP protein. An absolute dependency of the GFP expression on p53 was verified with p53-null H1299 cells. […] The cells were fixed 24 h later.

p53 = p53 (Homo sapiens, UniProt P04637); conditions: reference [28]; cited from earlier work
p73 = target: T1, p73 (Homo sapiens, UniProt O15350); conditions: reference [28]; cited from earlier work
T1 sequence (O15350 1-499 isoform O15350-2): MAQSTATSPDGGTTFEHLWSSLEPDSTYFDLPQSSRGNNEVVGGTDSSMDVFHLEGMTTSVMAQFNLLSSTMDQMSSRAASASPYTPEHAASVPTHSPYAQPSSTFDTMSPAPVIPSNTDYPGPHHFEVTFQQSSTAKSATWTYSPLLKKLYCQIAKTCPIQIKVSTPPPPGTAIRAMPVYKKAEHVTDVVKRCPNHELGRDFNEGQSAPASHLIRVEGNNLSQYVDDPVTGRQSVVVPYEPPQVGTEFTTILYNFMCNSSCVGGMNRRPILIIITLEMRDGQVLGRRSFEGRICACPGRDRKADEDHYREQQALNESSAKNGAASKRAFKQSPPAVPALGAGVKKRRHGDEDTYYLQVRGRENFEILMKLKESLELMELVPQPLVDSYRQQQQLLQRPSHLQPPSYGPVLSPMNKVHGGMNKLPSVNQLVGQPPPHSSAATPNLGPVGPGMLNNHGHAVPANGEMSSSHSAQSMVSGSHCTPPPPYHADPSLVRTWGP

p53, sequence (P04637 whole entry): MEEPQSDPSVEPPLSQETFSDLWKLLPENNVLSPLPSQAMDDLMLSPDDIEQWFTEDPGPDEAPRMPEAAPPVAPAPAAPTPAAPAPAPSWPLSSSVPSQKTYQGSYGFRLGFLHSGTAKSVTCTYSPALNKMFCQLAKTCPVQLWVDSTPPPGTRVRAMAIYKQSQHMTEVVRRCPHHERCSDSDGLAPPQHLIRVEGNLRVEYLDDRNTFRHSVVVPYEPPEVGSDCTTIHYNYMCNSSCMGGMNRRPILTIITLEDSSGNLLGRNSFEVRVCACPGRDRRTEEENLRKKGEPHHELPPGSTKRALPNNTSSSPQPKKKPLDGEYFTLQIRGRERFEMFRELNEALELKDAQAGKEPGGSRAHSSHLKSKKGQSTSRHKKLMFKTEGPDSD

Question: For “p53/p73OD: human p53 protein in which amino acids 318 to 364 are replaced with amino acids 346-390 of p73 (the oligomerization domain)”, which “cell growth (colony formation)” value (MDA-MB-231 cells [1]) is on record?
Answer: effectively inhibited cell growth

Question: What about the “cell growth (colony formation)” value (MCF-10A cells [2]) of the same substance?
Answer: did not significantly impact the growth

Question: What about the “PUMA, MDM2 and p21 expression” value (MDA-MB-231 cells [3]) of the same substance?
Answer: robust induction

Question: And the “phosphorylation after IR” value (MDA-MB-231 cells [3]; 4Gy, 6 h post-IR)?
Answer: markedly induced

Question: What about the “mutant p53 protein level” value (MDA-MB-231 cells [3]; Western, 48 h post-selection) of the same substance?
Answer: significant decrease

Question: What about the “phosphorylation (anti-Sp15p53 Western)” value (MDA-MB-231 cells [3]; no irradiation) of the same substance?
Answer: phosphorylated

Question: What about the “phosphorylation after IR” value (MCF-10A cells [4]) of the same substance?
Answer: markedly induced

Question: And the “G1 cell cycle arrest after IR” value (MCF-10A cells [5])?
Answer: significant G1 cell cycle arrest

Question: What about the “G1 cell cycle arrest after IR” value (MDA-MB-231 cells [6]) of the same substance?
Answer: little G1 cell cycle arrest

Question: And the “sub-G1, or apoptotic population after IR” value (MDA-MB-231 cells [6])?
Answer: marked increase

Question: And the “p53 transcription activity (GFP expression)” value [7]?
Answer: increase of p53 transcription activity

Question: And the “binding to p53” value (p53)?
Answer: does not bind

Question: And the “association with p73” value (p73)?
Answer: associates
